Results as given in article PMC5956019, “A rapid solution-based method for determining the affinity of heroin hapten-induced antibodies to heroin, its metabolites, and other opioids” (Analytical and Bioanalytical Chemistry, 2018).
Where two headings read alike, the source gives them in different places.

Experiments:
6-AmHap-Abs [1] = type: binding, mouse; settings: for Ki: read-out: Heterologous MST Ki; for IC50: read-out: Heterologous MST IC50
Method: The final concentrations of 6-AmHap-Abs, MorHap-Cy5 in the capillaries were 10 nM and 0.25 nM, respectively. The same procedure was performed for the binding of the 6-AmHap-Abs to the other drugs but different concentrations of competitor working solutions were used.
For the heroin-binding assay in the presence of esterase inhibitors, a working solution containing 6-AmHap antibody (40 nM) and 80 μM iso-OMPA/80 μM BNPP was incubated for 2 h at RT. An equal volume of MorHap-Cy5 (1 nM) was then mixed with the 6-AmHap-Abs/iso-OMPA/BNPP mixture and the reaction mixture was further incubated for 20 min in the dark at RT. The rest of the procedure was performed as described above. The final concentrations of 6-AmHap-Abs, iso-OMPA/BNPP, and MorHap-Cy5 in the capillaries were 10 nM, 20 μM/20 μM, and 0.25 nM, respectively.
(§1) The MST measurements were done on a Monolith™ NT.115^Pico instrument from NanoTemper Technologies GmbH. The instrument was equipped with an IR laser (wavelength, 1475 ± 15 nm; power, 120 mW maximum) and a red fluorescence channel that can detect red dyes, such as Cy5 and Alexa Fluor 647. The samples were measured at an LED power of 20% and an MST power of 25% with a laser-on time of 30 s and a laser-off time of 5 s. MST measurements of 15–16 samples typically take ~ 20 min.
In the competition MST procedures, a constant concentration of MorHap-Cy5:antibody complex was titrated with an increasing concentration of drug competitor. […] The software plots Fnorm against 15–16 increasing drug competitor concentration points to yield the binding curve, and subsequently fits the curve to obtain the IC50. For presentation purposes, the fraction bound was manually calculated and plotted using the equation above where x is the Fnorm at a given competitor concentration. The binding affinities (Ki) from the heterologous MST assays were then derived using the Ki-Finder software from the Nanotemper website. In order to calculate the Ki, the following parameters must be entered into the Ki-Finder website: the binding affinity of the tracer against the antibody (Kd), the concentration of the antibody (I0), the concentration of the tracer (labeled T0), the highest concentration of the competitor (L0), and the IC50 of the competitor to the antibody. The website then plots both the binding curve and competition curve to produce the competitor Ki, also known as the Kd of the antibody to the drug competitor.

6-AmHap-Abs [2] = type: binding, mouse; settings: read-out: Competition ELISA Heterologous, IC50
[3] = degradation of heroin in humans, Fig. 1a; cited from earlier work
6-AmHap-Abs [4] = type: binding, mouse; settings: read-out: Kd of 6-AmHap-Abs derived from ED-UPLC/MS/MS; post-immune serum diluted 1:1600, 5 nM D3-tracer
Method: Post-immune sera (week 8) from the mouse study described by Sulima et al. [12] were used in this study. […] Briefly, post-immune serum was diluted in DPBS (1:1600). Dialysis buffer was prepared by diluting the corresponding pre-immune serum (week 0) in DPBS (1:1600). […] A 100-μL dilution of week 8 serum containing 5 nM D3-tracer was pipetted into the sample chamber, and a 300-μL aliquot of the competitive inhibitor solution was added to the buffer chamber. Both week 8 and week 0 were run against each other at the same sera dilutions. For negative controls, the same setup was employed except both sides of the dialysis chamber contained only week 0 serum. Equilibrium dialysis, preparation of samples for UPLC/MS/MS, and calculation of Kd were performed as described [13].
The antibody binding site concentration was derived from Müller’s equation [17] and was calculated using the following formula: Abt=bTt+b×Kd/1−b where [Abt] is the total concentration of the antibody binding sites, b is the fraction of bound D3-tracer in the absence of competitive inhibitor, [Tt] is the total molar concentration of the D3-tracer after equilibrium, and Kd is the apparent dissociation constant.

6-AmHap-Abs [5] = settings: ref Sulima et al [3]; read-out: Competition ELISA Homologous, IC50; cited from earlier work
[6] = molecular target: Anti-morphine antibody (ab1060); type: binding, mouse; settings: 0.25 nM MorHap-Cy5, 10 nM ab1060, 4000 nM competitor
Method: as §1
In the competition MST procedures, a constant concentration of MorHap-Cy5:antibody complex was titrated with an increasing concentration of drug competitor. […] The software plots Fnorm against 15–16 increasing drug competitor concentration points to yield the binding curve, and subsequently fits the curve to obtain the IC50. For presentation purposes, the fraction bound was manually calculated and plotted using the equation above where x is the Fnorm at a given competitor concentration. The binding affinities (Ki) from the heterologous MST assays were then derived using the Ki-Finder software from the Nanotemper website. […]

[7] = 0.25 nM MorHap-Cy5, 10 nM antibody binding sites, without esterase inhibitors, […]
[8] = 0.25 nM MorHap-Cy5, 10 nM antibody binding sites, without esterase inhibitors

Row | Compound | Ki (6-AmHap-Abs [1]; [7]) [nM] | IC50 (6-AmHap-Abs [1]; [8]) [nM] | IC50 (6-AmHap-Abs [2]) [nM] | IC50 (6-AmHap-Abs [5]) [nM] | other results
1 | 6-acetylmorphine [6-AM] | 0.44 ± 0.33 | 6.75 ± 1.17 | 19.8 ± 6.33 | 3720 ± 700 | t1/2 [3]: 0.367 to 0.433 h; Kd (6-AmHap-Abs [4]): 0.53 ± 0.28 nM
2 | CN1CC[C@]23c4c5ccc(O)c4O[C@H]2[C@@H](O)C=C[C@H]3[C@H]1C5O (stereo partly drawn) [10-Hydroxymorphine, 10-hydroxymorphine] | 18.4 ± 5.78 | 51.2 ± 0.72 |  |  | 
3 | CC(=O)Nc1ccccc1 [Acetanilide, acetanilide] |  |  |  |  | Heterologous MST IC50 (6-AmHap-Abs [1]; [8]): No binding; Heterologous MST Ki (6-AmHap-Abs [1]; [7]): No binding; Heterologous MST Ki (6-AmHap-Abs [1]; 0.25 nM MorHap-Cy5, 10 nM antibody binding sites, without esterase inhibitors, […], listed as acetanilide): Neither acetanilide nor N-methylpiperidine bound
4 | CN1CC[C@]23c4c5ccc(O)c4O[C@H]2CCC[C@H]3[C@H]1C5 [Desomorphine, desomorphine] |  |  |  |  | IC50 (6-AmHap-Abs [1]): 9.07 ± 0.73 nM; Ki (6-AmHap-Abs [1]): 0.9 ± 0.64 nM
5 | CN1CC[C@]23CCCC[C@H]2[C@H]1Cc1ccc(O)cc13 [Levorphanol, levorphanol] | 11.6 ± 4.41 | 33.7 ± 0.91 | 341 ± 138 | 3390 ± 900 | 
6 | CN1CC[C@]23c4c5ccc(O[C@@H]6O[C@H](C(=O)O)[C@@H](O)[C@H](O)[C@H]6O)c4O[C@H]2[C@@H](O)C=C[C@H]3[C@H]1C5 [M-3G, morphine-3-β-glucuronide] | 27.9 ± 4.14 | 69.1 ± 1.24 | 23.2 ± 7.33 | 28000 ± 11400 | t1/2 [3]: 4.5 h
7 | CN1CC[C@]23c4c5ccc(O)c4O[C@H]2[C@@H](O[C@@H]2O[C@H](C(=O)O)[C@@H](O)[C@H](O)[C@H]2O)C=C[C@H]3[C@H]1C5 [M-6G, morphine-6-β-glucuronide] | 0.66 ± 0.9 | 5.88 ± 1.22 | 11.3 ± 2.16 | 25000 ± 12100 | t1/2 [3]: 4.60 h
8 | CN1CC[C@]23c4c5ccc(O)c4O[C@H]2[C@H](NC(=O)CCSCC(N)=O)C=C[C@H]3[C@H]1C5 [MorHap-acetamide] |  |  |  |  | Ki [6]: 14 ± 7.97 nM
9 | C[N+]1([O-])CC[C@]23c4c5ccc(O)c4O[C@H]2[C@@H](O)C=C[C@H]3[C@H]1C5 (stereo partly drawn) [Morphine N-Oxide, morphine N-oxide] | 6460 ± 4780 | 12651 ± 1.33 |  |  | 
10 | CN1CCCCC1 [N-Methylpiperidine, N-methylpiperidine] |  |  |  |  | Heterologous MST IC50 (6-AmHap-Abs [1]; [8]): No binding; Heterologous MST Ki (6-AmHap-Abs [1]; [7]): No binding; Heterologous MST Ki (6-AmHap-Abs [1]; 0.25 nM MorHap-Cy5, 10 nM antibody binding sites, without esterase inhibitors, […], listed as N-methylpiperidine): Neither acetanilide nor N-methylpiperidine bound
11 | C=CCN1CC[C@]23c4c5ccc(O)c4O[C@H]2[C@@H](O)C=C[C@H]3[C@H]1C5 [Nalorphine, nalorphine] | 2.93 ± 0.98 | 10.6 ± 0.89 |  |  | 
12 | Oc1ccc2c3c1O[C@H]1[C@@H](O)C=C[C@H]4[C@@H](C2)NCC[C@@]341 [Normorphine, normorphine] | 55.1 ± 7.58 | 136 ± 0.94 | 3220 ± 2000 | 112000 ± 22300 | 
13 | CN1CC[C@]23c4c5ccc(O)c4O[C@H]2C(=O)CC[C@@]3(O)[C@H]1C5 [Oxymorphone, oxymorphone] | 251 ± 7 | 598.1 ± 0.95 | 2430 ± 864 | 125000 ± 28600 | 
14 | COC1=CC=C2[C@H]3Cc4ccc(OC)c5c4[C@@]2(CCN3C)[C@H]1O5 [Thebaine, thebaine] | 13.1 ± 5.47 | 35.6 ± 0.91 |  |  | 
